How the values were obtained:
Experiment in all cases: relative viability (nuclei count vs DMSO), 5 days (fraction); higher = more cells survive
[1] = compound: Cc1nc(C(=O)NCC(=O)O)c(O)c2ccc(Oc3ccccc3)cc12 [FG-4592] + CS(=O)(=O)CCNCc1ccc(-c2ccc3ncnc(Nc4ccc(OCc5cccc(F)c5)c(Cl)c4)c3c2)o1 [Lapatinib] (partner 2 µM)
In short: (§1)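 Five library-drug doses in √10 steps were combined with a fixed anchor-drug dose, or a single drug was given alone, by pin tool to lung cancer cell lines in 1536-well plates the day after seeding. Nuclei were stained and counted after 5 days. Relative viability is the nuclei count in treated wells over that in vehicle wells, taken as the median of duplicate plates.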

[2] = compound: Cc1nc(C(=O)NCC(=O)O)c(O)c2ccc(Oc3ccccc3)cc12 [FG-4592] + CC(C)C[C@H](NC(=O)[C@H](Cc1ccccc1)NC(=O)c1cnccn1)B(O)O [Bortezomib] (partner 0.002 µM)
In short: as §1

[3] = compound: CC1=CC(=C(N1C2=CC=C(C=C2)Cl)C)C(=O)CN3CCCCC3 [IU1-47] + Cc1cc(Nc2cc(N3CCN(C)CC3)nc(Sc3ccc(NC(=O)C4CC4)cc3)n2)n[nH]1 [Tozasertib] (partner 0.1 µM)
In short: as §1

[4] = compound: CC1=CC(=C(N1C2=CC=C(C=C2)Cl)C)C(=O)CN3CCCCC3 [IU1-47] + N=C(N)NC(=N)NCCc1ccccc1 [Phenformin] (partner 250 µM)
In short: as §1

Cell Line	relative viability ([1]; first compound 0.08 µM)	relative viability ([1]; first compound 0.253 µM)	relative viability ([1]; first compound 0.8 µM)	relative viability ([1]; first compound 2.53 µM)	relative viability ([1]; first compound 8 µM)	relative viability ([2]; first compound 0.08 µM)	relative viability ([2]; first compound 0.253 µM)	relative viability ([2]; first compound 0.8 µM)	relative viability ([2]; first compound 2.53 µM)	relative viability ([2]; first compound 8 µM)	relative viability ([3]; first compound 0.08 µM)	relative viability ([3]; first compound 0.253 µM)	relative viability ([3]; first compound 0.8 µM)	relative viability ([3]; first compound 8 µM)	relative viability ([4]; first compound 0.08 µM)	relative viability ([4]; first compound 0.253 µM)	relative viability ([4]; first compound 0.8 µM)	relative viability ([4]; first compound 8 µM)	relative viability ([3]; first compound 2.53 µM)	relative viability ([4]; first compound 2.53 µM)
201T	0.976	1.03	0.931	1.04	1.01	1.11	1.12	1.04	1.1	1.08	0.991	0.947	1.05	0.762	0.419	0.435	0.486	0.362		
A549	0.917	0.975	1.03	1.07	0.946										0.165	0.105	0.144	0.0832		
A-427	0.975	1.05	0.943	0.953	1.03	0.925	0.979	0.983	0.946	0.954	0.201	0.208	0.236	0.212	0.342	0.313	0.306	0.229		
ABC-1	1.11	1.11	1.06	1.08	0.801	0.365		0.308	0.359	0.22	0.188	0.165	0.158	0.193	0.212	0.234	0.202	0.247		
BEN	0.495	0.507	0.555	0.822	0.475	0.608	0.733	0.701	0.825	0.546	0.499	0.444	0.49	0.506	0.263	0.24	0.27	0.275	0.631	
CAL-12T	0.646	0.599	0.492	0.647	0.667	1.05	1.07	0.601	1.15	0.902	0.408	0.326	0.34	0.287	0.525	0.576	0.613	0.554	0.318	0.472
COR-L23	0.906	0.914	0.965	0.838	0.81	1.03	0.874	1.26	0.888	0.889	0.184	0.183	0.206	0.18	0.414	0.45	0.472	0.492	0.207	0.438
COR-L 105	0.348	0.342	0.264	0.382	0.329	0.75	0.725	0.796	0.807	0.674	0.372	0.387	0.379	0.326	0.418	0.438	0.506	0.454	0.355	0.501
Calu-6	1.01	1	1.12	1.08	1.07	0.98	0.854	0.938	1.1	0.926										
ChaGo-K-1						1.04	0.873	0.726	1.11	0.533	0.203	0.216	0.263	0.228	0.464	0.545	0.428	0.451	0.215	0.579
EBC-1	0.24	0.25	0.206	0.201	0.232	0.63	0.531	0.57	0.546	0.688										
EKVX	0.226	0.213	0.195	0.278	0.375	1.1	0.94	1.06	1.17	0.885	0.418	0.433	0.367	0.349	0.24	0.262	0.263	0.252	0.341	0.259
EMC-BAC-2	0.853	0.866	0.808	0.731	0.842	1.04	1.04	0.934	1.02	1	0.279	0.305	0.285	0.271	0.548	0.569	0.53	0.409	0.305	0.627
EPLC-272H	1.12	0.795	0.586	0.962	0.916	0.897	0.712	0.7	0.979	0.799	0.228	0.347	0.246	0.145	0.294	0.298	0.23	0.243		
H3255	0.275	0.235	0.271	0.257	0.26	0.816	0.606	0.752	0.744	0.906	0.725	0.636	0.643	0.752	0.426	0.358	0.294	0.352	0.416	0.365
HARA	0.677	0.719		0.728	0.667	1.03	1.01		1.08	1.11	0.0876	0.0862	0.0879	0.0969	0.594	0.478	0.567	0.537		

From the supplement of paper PMC10307832
